This note sets out measurements from US8097616B2, “Process for preparation of high-purity meloxicam and meloxicam potassium salt” (Egis Gyogyszergyar Nyilvanosan Mukodo Reszvenytarsasag, priority 2004, dated 2012).

The nature of the data set: solubility in water at the acidification pH. The data set is classed as physicochemical. The conditions noted are these: acidified until pH 6.

Consider `Cc1cnc(NC(=O)C2=C(O)c3ccccc3S(=O)(=O)N2C)s1` [meloxicam, 4-hydroxy-2-methyl-N-(5-methyl-2-thiazolyl)-2H-1,2-benzothiazine-3-carboxamide-1,1-dioxide], for which the solubility in water entry is on record as “almost insoluble”.
